Where two headings read alike, the source gives them in different places.
Legend:
45-bp dsDNA = assay: dsDNA intercalation fluorescence polarization assay (acridine orange); format: binding; conditions: for Polarization: compound at 30 µM
m-cGAS = m-cGAS (Mus musculus, UniProt Q8C6L5); assay: RapidFire mass spectrometry (RF-MS) cGAS activity assay, m-cGAS
h-cGAS [1] = target: T1, h-cGAS (Homo sapiens, UniProt Q8N884); assay: ATP-coupled luminescence (LUM, Kinase-Glo) high-throughput assay, h-cGAS; format: biochemical; set-up: His6-SUMO (N, cleaved yes); made in house; host or cells: E. coli BL21-CodonPlus(DE3)-RIL; conditions: library stock, ten half-dilutions from 25 µM; read-out: h-cGAS IC50 (LUM)
h-cGAS [2] = target: T1, h-cGAS; assay: RapidFire mass spectrometry (RF-MS) cGAS activity assay, h-cGAS
cGAS in THP1 cells = assay: dsDNA-stimulated mRNA induction (qRT-PCR) in THP1 cells; format: cell-based, human
cGAS in RAW-Lucia cells = assay: Lucia luciferase reporter assay in dsDNA-stimulated RAW-Lucia cells; conditions: read-out: cell-based IC50 in mouse RAW 264.7 cells
human THP1 cells = system: human THP1 cells; set-up: method as in PMID 25821216; conditions: cited from earlier work
[3] = system: STING pathway in RAW 264.7 cells; assay: cGAMP-stimulated IFNB1 mRNA induction in RAW 264.7 cells (specificity); format: cell-based, mouse; conditions: RAW 264.7, 10 µM J014
cGAS in RAW 264.7 cells = assay: dsDNA-stimulated IFNB1 mRNA induction (qRT-PCR) in RAW 264.7 cells; format: cell-based; conditions: Mus musculus, RAW264.7
THP1 cells = assay: CellTiter-Glo cytotoxicity assay, THP1; format: cell-based; conditions: 24 h
[4] = system: STING pathway in THP1 cells; assay: cGAMP-stimulated IFNB1 mRNA induction in THP1 cells (specificity); format: cell-based, human; conditions: THP1, 5 µM J014
[5] = m-cGAS IC50, RF-MS, freshly sourced vendor powder
[6] = h-cGAS IC50, RF-MS, freshly sourced vendor powder
[7] = relative to the parent compound

T1 sequence (Q8N884 whole entry): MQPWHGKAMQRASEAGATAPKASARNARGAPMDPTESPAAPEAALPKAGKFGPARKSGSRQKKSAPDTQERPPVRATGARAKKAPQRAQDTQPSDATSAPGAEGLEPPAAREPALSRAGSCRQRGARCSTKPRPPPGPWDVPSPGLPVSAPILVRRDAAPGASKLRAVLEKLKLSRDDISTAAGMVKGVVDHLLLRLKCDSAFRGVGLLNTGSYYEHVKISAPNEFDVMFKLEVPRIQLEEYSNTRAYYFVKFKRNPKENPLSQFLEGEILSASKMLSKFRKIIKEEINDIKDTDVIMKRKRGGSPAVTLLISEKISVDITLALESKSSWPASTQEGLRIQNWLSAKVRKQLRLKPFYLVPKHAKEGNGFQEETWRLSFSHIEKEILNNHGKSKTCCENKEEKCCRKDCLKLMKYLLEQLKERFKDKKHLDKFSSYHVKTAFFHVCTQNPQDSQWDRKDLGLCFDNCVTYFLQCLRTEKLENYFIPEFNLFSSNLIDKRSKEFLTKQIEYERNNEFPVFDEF
m-cGAS, sequence (Q8C6L5 whole entry): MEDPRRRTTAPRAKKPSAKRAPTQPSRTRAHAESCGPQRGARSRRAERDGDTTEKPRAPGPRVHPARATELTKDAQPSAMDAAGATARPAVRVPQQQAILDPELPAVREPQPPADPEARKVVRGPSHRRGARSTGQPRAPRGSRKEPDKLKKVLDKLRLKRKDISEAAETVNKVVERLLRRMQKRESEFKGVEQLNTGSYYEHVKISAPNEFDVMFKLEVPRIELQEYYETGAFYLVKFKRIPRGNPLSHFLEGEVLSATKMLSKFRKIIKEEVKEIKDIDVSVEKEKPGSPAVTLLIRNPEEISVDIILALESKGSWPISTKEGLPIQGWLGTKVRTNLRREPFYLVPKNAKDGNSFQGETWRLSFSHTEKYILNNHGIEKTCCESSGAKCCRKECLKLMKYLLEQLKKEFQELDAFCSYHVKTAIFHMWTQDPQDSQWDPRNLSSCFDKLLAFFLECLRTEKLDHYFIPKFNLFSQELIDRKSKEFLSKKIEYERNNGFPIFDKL

IC50 (m-cGAS; [5]) [µM] | IC50 (h-cGAS [1]) [µM] | IC50 (h-cGAS [2]; [6]) [µM] | Structure (SMILES) | % Intercalation at 30 µM (45-bp dsDNA) [%] | Polarization (45-bp dsDNA) [mP] | also measured
3.93 | 6.64 | 3.04 | COC(=O)C1=NN2C(=NS(=O)(=O)c3ccccc32)N1 [RU-0209189_AA-001] | -6.61 | 256 | 
> 50 | 1.63 | 1.13 | O=c1cc(Cc2ccccc2)[nH]c2c(-c3ccccc3)c(C(F)(F)F)nn12 [RU-0168658_AA-001] | -8.74 | 260 | 
> 50 | 9.35 | 23.1 | Cc1c2c(nc3cc4c(cc13)OCO4)CCc1ccccc1-2 [RU-0093754_AQ-001] | -2.1 | 247 | 
> 50 | 2.48 | 13.7 | O=C(Nc1ncccc1O)c1nc(-c2ccccc2)n2c1CCCCC2 [RU-0208404_AA-001] | -4.67 | 252 | 

Continued, compound first:

Structure (SMILES) | IC50 (m-cGAS; [5]) [µM] | IC50 (h-cGAS [1]) [µM] | IC50 (h-cGAS [2]; [6]) [µM] | % Intercalation at 30 µM (45-bp dsDNA) [%] | Polarization (45-bp dsDNA) [mP] | also measured
FC(F)(F)c1nc2cc(Cl)cc(Cl)c2[nH]1 [RU-0005637_AA-001] | > 50 | 3.38 | 2.39 | -3.44 | 248 | 
O=C(CO)N1CCc2[nH]c3c(Cl)c(Cl)ccc3c2C1 [G022, 1-(6,7-dichloro-1,3,4,5-tetrahydro-2H-pyrido[4,3-b]indol-2-yl)-2-hydroxyethan-1-one] |  |  |  |  |  | IC50 (m-cGAS; IC50 m-cGAS, RF-MS): < 0.024 µM; inhibition of IFNB1 mRNA induction in human THP1 cells (in words) (cGAS in THP1 cells): no inhibition; IC50 (cGAS in RAW-Lucia cells; Mus musculus, RAW264.7, Lucia luciferase per Suppl. Fig. 11a,b): 3.32 µM
CCN(CC)CCCC(C)Nc1c2ccc(Cl)cc2nc2ccc(OC)cc12 (centres unmarked) [quinacrine] |  |  |  |  |  | IC50 (human THP1 cells): 3.7 µM
O=C(Nc1cc(-c2ccccc2)ccn1)c1[nH]ncc1[N+](=O)[O-] [J014] |  |  |  | -22.38 | 277 | inhibition with cGAMP instead of dsDNA as activating ligand (in words) [3]: same level of inhibition; IC50 (cGAS in RAW 264.7 cells): 3.58 µM; IC50 (m-cGAS; IC50 m-cGAS, RF-MS): 0.06 µM; fold improvement of m-cGAS IC50 (m-cGAS; [7]): 10 fold; LD50, THP1 cells (THP1 cells): 28.9 µM; inhibition with cGAMP instead of dsDNA as activating ligand (in words) [4]: same level of inhibition; IC50 (cGAS in THP1 cells; Homo sapiens, THP-1, qRT-PCR, read-out: IC50 IFNB1 mRNA, THP1): 2.63 µM; IC50 (h-cGAS [2]; IC50 h-cGAS, RF-MS): 0.1 µM; fold improvement of h-cGAS IC50 (h-cGAS [2]; [7]): 10 fold
O=C(CO)N1CCc2[nH]c3c(Cl)c(Br)ccc3c2C1 [G086] |  |  |  |  |  | inhibition of IFNB1 mRNA induction in human THP1 cells (in words) (cGAS in THP1 cells): did not inhibit
Cn1c2c(c3ccc(Cl)c(F)c31)CN(C(=O)CO)CC2 [G097] |  |  |  |  |  | IC50 (m-cGAS; read-out: IC50 m-cGAS, RF-MS): < 0.024 µM; inhibition of IFNB1 mRNA induction in human THP1 cells (in words) (cGAS in THP1 cells): no inhibition; IC50 (cGAS in RAW-Lucia cells; Lucia luciferase per Suppl. Fig. 11a,b): 1.09 µM; IC50 (h-cGAS [2]; read-out: IC50 h-cGAS, RF-MS): > 0.039 µM
O=C(O)CN1C(=O)/C(=C\c2cc([N+](=O)[O-])cc(Br)c2O)SC1=S [RU-0010201_AA-001] | 5.77 | 1.55 | 3.02 | -18.01 | 278 | 
